Measurements published in patent US20240182465A1 (GENFLEET THERAPEUTICS (SHANGHAI) INC., priority 2021, published 2024).
Where a name gives a salt, the structure may show the parent alone.

What was measured:
HPK1 [1] = biological target: HPK1 (Homo sapiens, UniProt Q92918); experiment: SLP76 phosphorylation assay (intracellular HPK1 inhibitory activity, p-SLP76 Ser376 sandwich ELISA); settings: p-SLP76 IC50(nM), Jurkat, Clone E6-1 cells; 1 h compound pre-incubation, anti-CD3 beads stimulation 20 min; SLP76 phosphorylation at S376
Target sequence in this assay (Q92918 whole entry): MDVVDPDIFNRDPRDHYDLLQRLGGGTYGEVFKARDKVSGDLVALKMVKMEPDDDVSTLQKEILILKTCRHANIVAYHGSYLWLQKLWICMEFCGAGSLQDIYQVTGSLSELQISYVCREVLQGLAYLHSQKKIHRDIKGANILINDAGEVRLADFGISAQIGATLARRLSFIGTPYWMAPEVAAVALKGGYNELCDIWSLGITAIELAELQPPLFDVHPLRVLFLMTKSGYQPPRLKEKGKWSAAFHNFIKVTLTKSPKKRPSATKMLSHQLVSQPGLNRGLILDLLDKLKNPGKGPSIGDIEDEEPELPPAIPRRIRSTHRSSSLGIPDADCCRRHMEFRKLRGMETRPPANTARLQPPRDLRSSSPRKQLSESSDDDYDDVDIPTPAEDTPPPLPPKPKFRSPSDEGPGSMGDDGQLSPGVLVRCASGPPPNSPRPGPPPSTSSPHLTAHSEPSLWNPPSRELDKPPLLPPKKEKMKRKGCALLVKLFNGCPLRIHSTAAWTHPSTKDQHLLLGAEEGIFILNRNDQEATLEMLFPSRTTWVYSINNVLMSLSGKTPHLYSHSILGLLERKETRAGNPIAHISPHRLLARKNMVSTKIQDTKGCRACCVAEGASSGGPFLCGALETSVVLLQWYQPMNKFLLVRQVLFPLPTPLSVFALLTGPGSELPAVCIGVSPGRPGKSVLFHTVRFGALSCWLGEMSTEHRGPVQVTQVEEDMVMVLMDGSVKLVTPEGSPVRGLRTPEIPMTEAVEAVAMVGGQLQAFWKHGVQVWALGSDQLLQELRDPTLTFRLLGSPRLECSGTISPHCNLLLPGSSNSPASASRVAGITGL

HPK1 [2] = biological target: T1, HPK1 (Homo sapiens, UniProt Q92918); experiment: HPK1 kinase activity assay (ADP-Glo); settings: HPK1 Kinase activity IC50 (nM), 1 nM HPK1, 10 μM ATP, 0.1 μg/μL MBP
T1 sequence (Q92918 1-346 limits assumed): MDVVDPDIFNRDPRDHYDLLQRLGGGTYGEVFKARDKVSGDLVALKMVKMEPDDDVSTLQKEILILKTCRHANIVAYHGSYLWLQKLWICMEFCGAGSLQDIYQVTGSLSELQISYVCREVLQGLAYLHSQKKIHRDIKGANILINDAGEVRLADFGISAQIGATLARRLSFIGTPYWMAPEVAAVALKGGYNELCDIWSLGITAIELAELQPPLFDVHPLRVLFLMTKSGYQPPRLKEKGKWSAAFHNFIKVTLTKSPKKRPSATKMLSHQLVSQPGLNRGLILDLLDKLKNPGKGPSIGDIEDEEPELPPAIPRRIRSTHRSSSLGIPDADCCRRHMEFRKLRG

IC50 (HPK1 [1])	IC50 (HPK1 [2])	SMILES
286 nM	0.3 nM	Cc1ncncc1C(=O)N1CCc2cc(-c3cnc4[nH]cc(C)c4c3)cc([C@@H]3CCCN3)c2C1 [Compound Z283, (S)-(6-(3-methyl-1H-pyrrolo[2,3-b]pyridin-5-yl)-8-(pyrrolidin-2-yl)-3,4-dihydroisoquinolin-2(1H)-yl) (4-methylpyrimidin-5-yl)methanone]
177 nM	0.4 nM	Cc1cc(N2CCc3cc(-c4cnc5[nH]cc(C)c5c4)cc([C@@H]4CCCN4)c3C2)cc(C)n1 [Compound Z343, (S)-2-(2,6-dimethylpyridin-4-yl)-6-(3-methyl-1H-pyrrolo[2,3-b]pyridin-5-yl)-8-(pyrrolidin-2-yl)-1,2,3,4-tetrahydroisoquinoline]
739 nM	2.52 nM	Cc1c[nH]c2ncc(-c3cc4c(c([C@@H]5CCCN5)c3)COC4)cc12 [Compound Z151-1, (S)-3-methyl-5-(7-(pyrrolidin-2-yl)-1,3-dihydroisobenzofuran-5-yl)-1H-pyrrolo[2,3-b]pyridine]
159 nM	0.37 nM	N#CC1(c2c[nH]c3ncc(-c4cc5c(c([C@@H]6CCCN6)c4)COCC5)cc23)CC1 [Compound Z137, (S)-1-(5-(8-(pyrrolidin-2-yl)isochroman-6-yl)-1H-pyrrolo[2,3-b]pyridin-3-yl)cyclopropane-1-carbonitrile]
111 nM	0.28 nM	Cc1c[nH]c2ncc(-c3cc4c(c([C@@H]5CCCN5)c3)CN(C(=O)c3cnn(C5CC5)c3)CC4)cc12 [Compound Z319, (S)-(1-cyclopropyl-1H-pyrazol-4-yl)(6-(3-methyl-1H-pyrrolo[2,3-b]pyridin-5-yl)-8-(pyrrolidin-2-yl)-3,4-dihydroisoquinolin-2(1H)-yl)methanone]
61.3 nM	0.19 nM	CC(C)(O)C(=O)N1CCc2cc(-c3cnc4[nH]cc(Cl)c4c3)cc([C@@H]3COCCN3)c2C1 [Compound Z418-1]
277 nM	0.53 nM	Cc1c[nH]c2ncc(-c3cc4c(c([C@@H]5CCCN5)c3)CCN(c3ccnn3C)C4)cc12 [Compound Z307, (S)-2-(1-methyl-1H-pyrazol-5-yl)-7-(3-methyl-1H-pyrrolo[2,3-b]pyridin-5-yl)-5-(pyrrolidin-2-yl)-1,2,3,4-tetrahydroisoquinoline]
197 nM	0.52 nM	Cc1ccc(C(=O)N2CCc3cc(-c4cnc5[nH]cc(C)c5c4)cc([C@@H]4CCCN4)c3C2)cn1 [Compound Z441, (S)-(6-(3-methyl-1H-pyrrolo[2,3-b]pyridin-5-yl)-8-(pyrrolidin-2-yl)-3,4-dihydroisoquinolin-2(1H)-yl) (6-methylpyridin-3-yl)methanone]
96.6 nM	0.35 nM	Cc1c[nH]c2ncc(-c3cc4c(c([C@@H]5CCCN5)c3)CN(C(=O)C3(O)CCOCC3)CC4)cc12 [Compound Z244, (S)-(4-hydroxytetrahydro-2H-pyran-4-yl)(6-(3-methyl-11H-pyrrolo[2,3-b]pyridin-5-yl)-8-(pyrrolidin-2-yl)-3,4-dihydroisoquinolin-2(1H)-yl)methanone]
193 nM	0.42 nM	Cc1c[nH]c2ncc(-c3cc4c(c([C@@H]5CCCN5)c3)CN(C(=O)NC3CC3)CC4)cc12 [Compound Z250, (S)—N-cyclopropyl-6-(3-methyl-1H-pyrrolo[2,3-b]pyridin-5-yl)-8-(pyrrolidin-2-yl)-3,4-dihydroisoquinoline-2(1H)-carboxamide]
1660 nM	20.5 nM	Cc1c[nH]c2ncc(-c3cc4c(c(C5CCN5)c3)COCC4)cc12 (stereo not drawn) [Compound Z232, 5-(8-(azetidin-2-yl)isochroman-6-yl)-3-methyl-1H-pyrrolo[2,3-b]pyridine]
170 nM	0.25 nM	CCn1cc(C(=O)N2CCc3cc(-c4cnc5[nH]cc(C)c5c4)cc([C@@H]4CCCN4)c3C2)cn1 [Compound Z335, (S)-(1-ethyl-1H-pyrazol-4-yl)-[6-(3-methyl-1H-pyrrolo[2,3-b]pyridin-5-yl)-8-[pyrrolidin-2-yl]-3,4-dihydroisoquinolin-2(1H)-yl]methanone]
174 nM	0.36 nM	Cc1c[nH]c2ncc(-c3cc4c(c([C@@H]5CCCN5)c3)CN(C(=O)c3cnn(C(F)F)c3)CC4)cc12 [Compound Z336, (S)-(1-(difluoromethyl)-1H-pyrazol-4-yl)-[6-(3-methyl-1H-pyrrolo[2,3-b]pyridin-5-yl)-8-[pyrrolidin-2-yl]-3,4-dihydroisoquinolin-2(1H)-yl]methanone]
91.3 nM	0.38 nM	Cc1c[nH]c2ncc(-c3cc4c(c([C@@H]5CCCN5)c3)CCN(S(C)(=O)=O)C4)cc12 [Compound Z88-1, (S)-7-(3-methyl-1H-pyrrolo[2,3-b]pyridin-5-yl)-2-(methylsulfonyl)-5-(pyrrolidin-2-yl)-1,2,3,4-tetrahydroisoquinoline]
185 nM	0.5 nM	COCC(=O)N1CCc2cc(-c3cnc4[nH]cc(C)c4c3)cc([C@@H]3CCCN3)c2C1 [Compound Z121, (S)-1-(6-(3-methyl-1H-pyrrolo[2,3-b]pyridin-5-yl)-8-(pyrrolidin-2-yl)-3,4-dihydroisoquinolin-2(1H)-yl)methoxyethyl ketone]
463 nM	1.7 nM	Cc1c[nH]c2ncc(-c3cc4c(c([C@@H]5CCCN5)c3)CN(C(=O)c3ccccn3)CC4)cc12 [Compound Z211, (S)-(6-(3-methyl-1H-pyrrolo[2,3-b]pyridin-5-yl)-8-(pyrrolidin-2-yl)-3,4-dihydroisoquinolin-2(1H)-yl) (pyridin-2-yl)methanone]
77 nM	0.29 nM	CC(C#N)c1c[nH]c2ncc(-c3cc4c(c([C@@H]5CCCN5)c3)COCC4)cc12 (stereo partly drawn) [Compound Z104, 2-(5-(8-((S)-pyrrolidin-2-yl)isochroman-6-yl)-1H-pyrrolo[2,3-b]pyridin-3-yl)propanenitrile]
62.1 nM	0.28 nM	Cc1c[nH]c2ncc(-c3cc4c(c([C@@H]5CCCN5)c3)CN(C(=O)N3CCOCC3)CC4)cc12 [Compound Z356, (S)-(6-(3-methyl-1H-pyrrolo[2,3-b]pyridin-5-yl)-8-(pyrrolidin-2-yl)-3,4-dihydroisoquinolin-2(1H)-yl) (morpholino)methanone]
119 nM	0.45 nM	COC1(C(=O)N2CCc3cc(-c4cnc5[nH]cc(C)c5c4)cc([C@@H]4CCCN4)c3C2)CC1 [Compound Z245, (S)-(1-methoxycyclopropyl)(6-(3-methyl-1H-pyrrolo[2,3-b]pyridin-5-yl)-8-(pyrrolidin-2-yl)-3,4-dihydroisoquinolin-2(1H)-yl)methanone]
2400 nM	3.8 nM	Cc1c[nH]c2ncc(-c3cc4c(c([C@@H]5CCCN5)c3)CN(C(=O)Nc3cccnc3)C4)cc12 [Compound Z387, (S)-6-(3-methyl-1H-pyrrolo[2,3-b]pyridin-5-yl)-N-(pyridin-3-yl)-4-(pyrrolidin-2-yl)isoindoline-2-carboxamide]
401 nM	0.6 nM	CN(C)C(=O)c1ccc(-c2c[nH]c3ncc(-c4cc5c(c([C@@H]6CCCN6)c4)COCC5)cc23)cn1 [Compound Z54-1, (S)—N,N-dimethyl-5-(5-(8-(pyrrolidin-2-yl)isochroman-6-yl)-1H-pyrrolo[2,3-b]pyridin-3-yl)pyridine carboxamide]
439 nM	1.62 nM	Nc1ncc(-c2cc3c(c(C4CCCN4)c2)COCC3)cc1-c1cn[nH]c1 (stereo not drawn) [Compound Z93, 3-(1H-pyrazol-4-yl)-5-(8-(pyrrolidin-2-yl)isochroman-6-yl)pyridin-2-amine formate]
119 nM	0.58 nM	Cc1c[nH]c2ncc(-c3cc4c(c([C@@H]5CCCN5)c3)CN(CC3(O)CCOCC3)CC4)cc12 [Compound Z437]

SMILES	IC50 (HPK1 [1])	IC50 (HPK1 [2])
Cc1c[nH]c2ncc(-c3cc4c(c([C@@H]5CCCN5)c3)CN(C(=O)N3CCO[C@@H](C)C3)CC4)cc12 [Compound Z359-1, (6-(3-methyl-1H-pyrrolo[2,3-b]pyridin-5-yl)-8-((S)-pyrrolidin-2-yl)-3,4-dihydroisoquinolin-2(1H)-yl) ((S)-2-methylmorpholin)methanone]	135 nM	0.27 nM
Cc1c[nH]c2ncc(-c3cc4c(c([C@@H]5CCCN5)c3)CCN(C(=O)[C@@H]3CCOC3)C4)cc12 [Compound Z293, (7-(3-methyl-1H-pyrrolo[2,3-b]pyridin-5-yl)-5-((S)-pyrrolidin-2-yl)-3,4-dihydroisoquinolin-2(1H)-yl) ((R)-tetrahydrofuran-3-yl)methanone]	113 nM	0.47 nM
Cc1cc(C(=O)N2Cc3cc(-c4cnc5[nH]cc(C)c5c4)cc([C@@H]4CCCN4)c3C2)cc(C)n1 [Compound Z262, (S)-(2,6-dimethylpyridin-4-yl)(6-(3-methyl-1H-pyrrolo[2,3-b]pyridin-5-yl)-4-(pyrrolidin-2-yl)isoindolin-2-yl)methanone hydrochloride]	627 nM	1.72 nM
CC(C)c1c[nH]c2ncc(-c3cc4c(c([C@@H]5COCCN5)c3)CN(C(=O)C3(O)CC3)CC4)cc12 [Compound Z433, (R)-(1-hydroxycyclopropyl)(6-(3-isopropyl-1H-pyrrolo[2,3-b]pyridin-5-yl)-8-(morpholin-3-yl)-3,4-dihydroisoquinolin-2(1H)-yl)methanone]	111 nM	0.22 nM
